We go through eight compounds from patent US5620958A, “Bradykinin antagonists” (Coretech, Inc., priority 1994, dated 1997).

One test deals with T1, NK1 receptor (Cavia porcellus, UniProt P30547).
T1 construct: a standard guinea pig ileum assay of NK1 receptor activity; from tissue; host or cells: guinea pig ileum
In words: guinea pig ileum assay of NK1 receptor activity against substance P. In kind it is cell-based. Conditions: Table O; for Kb: read-out: NK1 : GPI pA2 (± s.e.m.) (converted). An excerpt:
In order to illustrate the potential of blocking two different receptor populations with a single compound a consensus NK1 receptor antagonist (DArg-DPro-Lys-Pro-Gln-Asn-DPhe-Phe-DTrp-Leu-Nle) was synthesized. […] Once the activity of this reference ligand was established, a series of lysine containing monomers formed by the systematic substitution of a lysine residue sequentially through the reference peptide was synthesized.

A further test concerns the target T2, BK2 receptor (Rattus norvegicus, UniProt P25023).
T2 sequence (P25023 1-396): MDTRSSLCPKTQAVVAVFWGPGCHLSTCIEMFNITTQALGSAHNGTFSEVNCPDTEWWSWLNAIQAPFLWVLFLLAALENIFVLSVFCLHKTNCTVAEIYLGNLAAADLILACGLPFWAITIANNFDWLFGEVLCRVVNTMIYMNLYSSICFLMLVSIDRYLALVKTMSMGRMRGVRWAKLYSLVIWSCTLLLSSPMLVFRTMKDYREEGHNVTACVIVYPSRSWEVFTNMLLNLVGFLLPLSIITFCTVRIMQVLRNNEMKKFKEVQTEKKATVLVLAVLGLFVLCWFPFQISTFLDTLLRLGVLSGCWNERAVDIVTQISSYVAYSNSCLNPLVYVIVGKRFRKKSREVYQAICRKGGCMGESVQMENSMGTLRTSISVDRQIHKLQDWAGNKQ
Description: cell-based.

Peptide text beside a SMILES is read from it.

T1 sequence (P30547 whole entry): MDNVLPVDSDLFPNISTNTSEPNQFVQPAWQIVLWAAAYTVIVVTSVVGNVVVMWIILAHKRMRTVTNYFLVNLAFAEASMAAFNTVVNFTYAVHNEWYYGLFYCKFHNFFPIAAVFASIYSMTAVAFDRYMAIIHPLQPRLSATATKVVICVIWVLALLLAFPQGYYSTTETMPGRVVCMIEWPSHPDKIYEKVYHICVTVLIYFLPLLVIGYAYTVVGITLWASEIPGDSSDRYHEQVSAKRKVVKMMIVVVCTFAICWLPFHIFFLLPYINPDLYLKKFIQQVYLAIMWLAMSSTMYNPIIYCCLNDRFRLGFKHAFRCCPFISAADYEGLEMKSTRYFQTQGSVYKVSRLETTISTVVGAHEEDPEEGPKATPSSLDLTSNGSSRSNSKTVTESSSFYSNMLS

In the case of `CCCC[C@H](NC(=O)[C@H](CC(C)C)NC(=O)[C@@H](Cc1c[nH]c2ccccc12)NC(=O)[C@H](Cc1ccccc1)NC(=O)[C@@H](Cc1ccccc1)NC(=O)[C@H](CC(N)=O)NC(=O)[C@H](CCC(N)=O)NC(=O)[C@@H]1CCCN1C(=O)[C@H](CCCCNC(=O)CCCCCN1C(=O)CC(SC[C@H](NC(=O)[C@H](Cc2ccccc2)NC(=O)CNC(=O)[C@@H]2C[C@@H](O)CN2C(=O)[C@@H]2CCCN2C(=O)[C@H](CCCNC(=N)N)NC(=O)[C@H](N)CCCNC(=N)N)C(=O)N[C@H](Cc2ccccc2)C(=O)N[C@@H](CC(C)C)C(=O)N[C@@H](CCCNC(=N)N)C(=O)O)C1=O)NC(=O)[C@H]1CCCN1C(=O)[C@H](N)CCCNC(=N)N)C(N)=O` (stereo partly shown) [CP-0392] (HELM PEPTIDE1{[dR].[dP].K.P.Q.N.[dF].F.[dW].L.[Nle].[am]}|PEPTIDE2{[dR].R.P.[Hyp].G.F.C.[dF].L.R}|CHEM1{[O=C1CC([*:2])C(=O)N1CCCCCC(=O)[*:1]]}$PEPTIDE1,CHEM1,3:R3-1:R1|PEPTIDE2,CHEM1,7:R3-1:R2$$$V2.0), the Kb at NK1 receptor was 5010 nM; on BK2 receptor, 100 nM.

With `CCCC[C@H](NC(=O)[C@H](CC(C)C)NC(=O)[C@@H](Cc1c[nH]c2ccccc12)NC(=O)[C@H](Cc1ccccc1)NC(=O)[C@@H](Cc1ccccc1)NC(=O)[C@H](CC(N)=O)NC(=O)[C@H](CCC(N)=O)NC(=O)[C@H](CCCCNC(=O)CCCCCN1C(=O)CC(SC[C@H](NC(=O)[C@H](Cc2ccccc2)NC(=O)CNC(=O)[C@@H]2C[C@@H](O)CN2C(=O)[C@@H]2CCCN2C(=O)[C@H](CCCNC(=N)N)NC(=O)[C@H](N)CCCNC(=N)N)C(=O)N[C@H](Cc2ccccc2)C(=O)N[C@@H](CC(C)C)C(=O)N[C@@H](CCCNC(=N)N)C(=O)O)C1=O)NC(=O)[C@H](CCCCN)NC(=O)[C@H]1CCCN1C(=O)[C@H](N)CCCNC(=N)N)C(N)=O` (stereo partly shown) [CP-0393] (HELM PEPTIDE1{[dR].[dP].K.K.Q.N.[dF].F.[dW].L.[Nle].[am]}|PEPTIDE2{[dR].R.P.[Hyp].G.F.C.[dF].L.R}|CHEM1{[O=C1CC([*:2])C(=O)N1CCCCCC(=O)[*:1]]}$PEPTIDE1,CHEM1,4:R3-1:R1|PEPTIDE2,CHEM1,7:R3-1:R2$$$V2.0), the figures for the Kb at NK1 receptor and on BK2 receptor were 3160 nM and 39.8 nM, respectively.

Regarding `CCCC[C@H](NC(=O)[C@H](CC(C)C)NC(=O)[C@@H](Cc1c[nH]c2ccccc12)NC(=O)[C@H](Cc1ccccc1)NC(=O)[C@@H](Cc1ccccc1)NC(=O)[C@H](CC(N)=O)NC(=O)[C@H](CCCCNC(=O)CCCCCN1C(=O)CC(SC[C@H](NC(=O)[C@H](Cc2ccccc2)NC(=O)CNC(=O)[C@@H]2C[C@@H](O)CN2C(=O)[C@@H]2CCCN2C(=O)[C@H](CCCNC(=N)N)NC(=O)[C@H](N)CCCNC(=N)N)C(=O)N[C@H](Cc2ccccc2)C(=O)N[C@@H](CC(C)C)C(=O)N[C@@H](CCCNC(=N)N)C(=O)O)C1=O)NC(=O)[C@@H]1CCCN1C(=O)[C@H](CCCCN)NC(=O)[C@H]1CCCN1C(=O)[C@H](N)CCCNC(=N)N)C(N)=O` (stereo partly shown) [CP-0394] (HELM PEPTIDE1{[dR].[dP].K.P.K.N.[dF].F.[dW].L.[Nle].[am]}|PEPTIDE2{[dR].R.P.[Hyp].G.F.C.[dF].L.R}|CHEM1{[O=C1CC([*:2])C(=O)N1CCCCCC(=O)[*:1]]}$PEPTIDE1,CHEM1,5:R3-1:R1|PEPTIDE2,CHEM1,7:R3-1:R2$$$V2.0), the values for the Kb at NK1 receptor and on BK2 receptor were 1580 nM and 12.6 nM, respectively.

With `CCCC[C@H](NC(=O)[C@H](CC(C)C)NC(=O)[C@@H](Cc1c[nH]c2ccccc12)NC(=O)[C@H](Cc1ccccc1)NC(=O)[C@@H](Cc1ccccc1)NC(=O)[C@H](CCCCNC(=O)CCCCCN1C(=O)CC(SC[C@H](NC(=O)[C@H](Cc2ccccc2)NC(=O)CNC(=O)[C@@H]2C[C@@H](O)CN2C(=O)[C@@H]2CCCN2C(=O)[C@H](CCCNC(=N)N)NC(=O)[C@H](N)CCCNC(=N)N)C(=O)N[C@H](Cc2ccccc2)C(=O)N[C@@H](CC(C)C)C(=O)N[C@@H](CCCNC(=N)N)C(=O)O)C1=O)NC(=O)[C@H](CCC(N)=O)NC(=O)[C@@H]1CCCN1C(=O)[C@H](CCCCN)NC(=O)[C@H]1CCCN1C(=O)[C@H](N)CCCNC(=N)N)C(N)=O` (stereo partly shown) [CP-0395] (HELM PEPTIDE1{[dR].[dP].K.P.Q.K.[dF].F.[dW].L.[Nle].[am]}|PEPTIDE2{[dR].R.P.[Hyp].G.F.C.[dF].L.R}|CHEM1{[O=C1CC([*:2])C(=O)N1CCCCCC(=O)[*:1]]}$PEPTIDE1,CHEM1,6:R3-1:R1|PEPTIDE2,CHEM1,7:R3-1:R2$$$V2.0), the Kb at NK1 receptor is 501 nM; at BK2 receptor, 50.1 nM.

In the case of `CCCC[C@H](NC(=O)[C@H](CC(C)C)NC(=O)[C@@H](Cc1c[nH]c2ccccc12)NC(=O)[C@H](Cc1ccccc1)NC(=O)[C@H](CCCCNC(=O)CCCCCN1C(=O)CC(SC[C@H](NC(=O)[C@H](Cc2ccccc2)NC(=O)CNC(=O)[C@@H]2C[C@@H](O)CN2C(=O)[C@@H]2CCCN2C(=O)[C@H](CCCNC(=N)N)NC(=O)[C@H](N)CCCNC(=N)N)C(=O)N[C@H](Cc2ccccc2)C(=O)N[C@@H](CC(C)C)C(=O)N[C@@H](CCCNC(=N)N)C(=O)O)C1=O)NC(=O)[C@H](CC(N)=O)NC(=O)[C@H](CCC(N)=O)NC(=O)[C@@H]1CCCN1C(=O)[C@H](CCCCN)NC(=O)[C@H]1CCCN1C(=O)[C@H](N)CCCNC(=N)N)C(N)=O` (stereo partly shown) [CP-0396] (HELM PEPTIDE1{[dR].[dP].K.P.Q.N.K.F.[dW].L.[Nle].[am]}|PEPTIDE2{[dR].R.P.[Hyp].G.F.C.[dF].L.R}|CHEM1{[O=C1CC([*:2])C(=O)N1CCCCCC(=O)[*:1]]}$PEPTIDE1,CHEM1,7:R3-1:R1|PEPTIDE2,CHEM1,7:R3-1:R2$$$V2.0), the “NK1 : GPI pA2 (± s.e.m.)” value at NK1 receptor was “Inactive”. On BK2 receptor, this compound gave a Kb of 10 nM.

With `CCCC[C@H](NC(=O)[C@H](CC(C)C)NC(=O)[C@@H](Cc1c[nH]c2ccccc12)NC(=O)[C@H](CCCCNC(=O)CCCCCN1C(=O)CC(SC[C@H](NC(=O)[C@H](Cc2ccccc2)NC(=O)CNC(=O)[C@@H]2C[C@@H](O)CN2C(=O)[C@@H]2CCCN2C(=O)[C@H](CCCNC(=N)N)NC(=O)[C@H](N)CCCNC(=N)N)C(=O)N[C@H](Cc2ccccc2)C(=O)N[C@@H](CC(C)C)C(=O)N[C@@H](CCCNC(=N)N)C(=O)O)C1=O)NC(=O)[C@@H](Cc1ccccc1)NC(=O)[C@H](CC(N)=O)NC(=O)[C@H](CCC(N)=O)NC(=O)[C@@H]1CCCN1C(=O)[C@H](CCCCN)NC(=O)[C@H]1CCCN1C(=O)[C@H](N)CCCNC(=N)N)C(N)=O` (stereo partly shown) [CP-0397] (HELM PEPTIDE1{[dR].[dP].K.P.Q.N.[dF].K.[dW].L.[Nle].[am]}|PEPTIDE2{[dR].R.P.[Hyp].G.F.C.[dF].L.R}|CHEM1{[O=C1CC([*:2])C(=O)N1CCCCCC(=O)[*:1]]}$PEPTIDE1,CHEM1,8:R3-1:R1|PEPTIDE2,CHEM1,7:R3-1:R2$$$V2.0), at NK1 receptor, the “NK1 : GPI pA2 (± s.e.m.)” value was “Inactive”. The Kb at BK2 receptor was 20 nM.

With `CCCC[C@H](NC(=O)[C@H](CC(C)C)NC(=O)[C@H](CCCCNC(=O)CCCCCN1C(=O)CC(SC[C@H](NC(=O)[C@H](Cc2ccccc2)NC(=O)CNC(=O)[C@@H]2C[C@@H](O)CN2C(=O)[C@@H]2CCCN2C(=O)[C@H](CCCNC(=N)N)NC(=O)[C@H](N)CCCNC(=N)N)C(=O)N[C@H](Cc2ccccc2)C(=O)N[C@@H](CC(C)C)C(=O)N[C@@H](CCCNC(=N)N)C(=O)O)C1=O)NC(=O)[C@H](Cc1ccccc1)NC(=O)[C@@H](Cc1ccccc1)NC(=O)[C@H](CC(N)=O)NC(=O)[C@H](CCC(N)=O)NC(=O)[C@@H]1CCCN1C(=O)[C@H](CCCCN)NC(=O)[C@H]1CCCN1C(=O)[C@H](N)CCCNC(=N)N)C(N)=O` (stereo partly shown) [CP-0398] (HELM PEPTIDE1{[dR].[dP].K.P.Q.N.[dF].F.K.L.[Nle].[am]}|PEPTIDE2{[dR].R.P.[Hyp].G.F.C.[dF].L.R}|CHEM1{[O=C1CC([*:2])C(=O)N1CCCCCC(=O)[*:1]]}$PEPTIDE1,CHEM1,9:R3-1:R1|PEPTIDE2,CHEM1,7:R3-1:R2$$$V2.0), the “NK1 : GPI pA2 (± s.e.m.)” value at NK1 receptor is reported as “Inactive”. The compound also had a Kb at BK2 receptor of 398 nM.

Regarding `CCCC[C@H](NC(=O)[C@H](CCCCNC(=O)CCCCCN1C(=O)CC(SC[C@H](NC(=O)[C@H](Cc2ccccc2)NC(=O)CNC(=O)[C@@H]2C[C@@H](O)CN2C(=O)[C@@H]2CCCN2C(=O)[C@H](CCCNC(=N)N)NC(=O)[C@H](N)CCCNC(=N)N)C(=O)N[C@H](Cc2ccccc2)C(=O)N[C@@H](CC(C)C)C(=O)N[C@@H](CCCNC(=N)N)C(=O)O)C1=O)NC(=O)[C@@H](Cc1c[nH]c2ccccc12)NC(=O)[C@H](Cc1ccccc1)NC(=O)[C@@H](Cc1ccccc1)NC(=O)[C@H](CC(N)=O)NC(=O)[C@H](CCC(N)=O)NC(=O)[C@@H]1CCCN1C(=O)[C@H](CCCCN)NC(=O)[C@H]1CCCN1C(=O)[C@H](N)CCCNC(=N)N)C(N)=O` (stereo partly shown) [CP-0399] (HELM PEPTIDE1{[dR].[dP].K.P.Q.N.[dF].F.[dW].K.[Nle].[am]}|PEPTIDE2{[dR].R.P.[Hyp].G.F.C.[dF].L.R}|CHEM1{[O=C1CC([*:2])C(=O)N1CCCCCC(=O)[*:1]]}$PEPTIDE1,CHEM1,10:R3-1:R1|PEPTIDE2,CHEM1,7:R3-1:R2$$$V2.0), the Kb on NK1 receptor is 12600 nM; on BK2 receptor it was 39.8 nM.
